# Reference: article PMC4184702 (Pharmacology Research & Perspectives, 2014)
# Columns and labels:
# Balb/CJ mice = assay: Acute toxicity / mortality in Balb/C mice; settings: 300 mg/kg, wild-type Balb/CJ mice
# [1] = test system: five different cytochrome P450 (CYP450) enzymes (2D6, 3A, 1A, 2C9, and 2C19); assay: CYP450 inhibition panel (summary); format: in vitro ADME, human; settings: in words
# [2] = test system: 51 other CNS neurotransmitter receptors and transporters; assay: Broad-range screening (PDSP), summary; format: binding; settings: 10 μmol/L
# Protocol: (§1) For experimental details, please refer to the Psychoactive Drug Screening Program (PDSP) web site http://pdsp.med.unc.edu/.
# (§2) ^a The default concentration for primary binding experiments is 10 µM (n = 4). ^b Negative inhibition represents a stimulation of binding. ^c BZPR: Benzodiazepine Receptors (rat brain site). ^d DOR: Delta Opioid Receptor; KOR: Kappa Opioid Receptor; MOR: Mu Opioid Receptor. ^e DAT: Dopamine Transporter; NET: Norepinephrine Transporter; SERT: Serotonin Transporter. ^f NMDA: N-methyl-D-aspartate receptor.
# M1 muscarinic receptor = target: T1, M1 muscarinic receptor (Homo sapiens, UniProt P11229); assay: PDSP primary binding, M1; settings: n = 4, read-out: Inhibition (primary binding competition efficacy), M1
# T1 construct: purchased NIMH Psychoactive Drug Screening Program (PDSP)
# Protocol: as §1, §2
# 5-HT1B = target: T2, 5-HT1B (Homo sapiens, UniProt P28222); assay: PDSP primary binding, 5-HT1B; settings: n = 4, negative inhibition = stimulation of binding, read-out: Inhibition (primary binding competition efficacy), 5-HT1B
# T2 construct: purchased NIMH Psychoactive Drug Screening Program (PDSP)
# Protocol: as §1, §2
# human α7-nAChR = target: T3, human α7-nAChR (Homo sapiens, UniProt P36544); assay: Two-electrode voltage-clamp recording in Xenopus oocytes, α7; format: cell-based
# T3 construct: expressed in transfected cells; host or cells: Xenopus oocytes (cRNA injection)
# Protocol: Xenopus oocytes were injected with cRNAs encoding human nicotinic receptor subunits (α4:β2 at 1:1 ratio or α7). Three to five days after injection, oocytes were individually placed in a custom made small volume chamber and continuously perfused with oocyte Ringer's solution (OR2; 92.5 mmol/L NaCl, 2.5 mmol/L KCl, 1 mmol/L CaCl2, 1 mmol/L MgCl2, and 5 mmol/L HEPES at pH 7.5). Drugs were delivered to the oocytes through a ValveLink8.2 computer-controlled perfusion system (Automate Scientific, Inc, Berkeley, CA). The chamber was grounded through an agar KCl bridge. The oocytes were voltage-clamped at −70 mV to measure agonist-induced currents using a GeneClamp 500B amplifier (Axon Instruments, Foster City, CA). The current signal was filtered at 20 Hz with the built-in four pole low-pass Bessel filter and digitized at 100 Hz.
# GABAB = assay: PDSP primary binding, GABAB; settings: 10 µM, n = 4
# Protocol: as §1, §2
# CYP2D6 = target: T4, CYP2D6 (Homo sapiens, UniProt P10635); assay: CYP2D6 inhibition, HLM, dextromethorphan substrate; format: in vitro ADME; settings: 1.0E-05 M
# T4 construct: from tissue; host or cells: human liver microsomes (HLM)
# Text: (§3) Supplement prp20002-e00026-sd1.doc, table 3: Table 3.
# CYP2C9 = target: T5, CYP2C9 (Homo sapiens, UniProt P11712); assay: CYP2C9 inhibition, HLM, diclofenac substrate; format: in vitro ADME; settings: 1.0E-05 M
# T5 construct: from tissue; host or cells: human liver microsomes (HLM)
# Text: as §3
# α2A adrenergic receptor = target: T6, α2A adrenergic receptor (Homo sapiens, UniProt P08913); assay: PDSP primary binding, α2A; settings: n = 4, read-out: Inhibition (primary binding competition efficacy), α2A
# T6 construct: purchased NIMH Psychoactive Drug Screening Program (PDSP)
# Protocol: as §1, §2
# mGluR5 = assay: PDSP primary binding, mGluR5; settings: 10 µM, n = 4
# Protocol: as §1, §2
# D4 dopamine receptor = target: T7, D4 dopamine receptor (Homo sapiens, UniProt P21917); assay: PDSP primary binding, D4; settings: n = 4, read-out: Inhibition (primary binding competition efficacy), D4
# T7 construct: purchased NIMH Psychoactive Drug Screening Program (PDSP)
# Protocol: as §1, §2
# α2C adrenergic receptor = target: T8, α2C adrenergic receptor (Homo sapiens, UniProt P18825); assay: PDSP primary binding, α2C; settings: n = 4, read-out: Inhibition (primary binding competition efficacy), α2C
# T8 construct: purchased NIMH Psychoactive Drug Screening Program (PDSP)
# Protocol: as §1, §2
# M5 muscarinic receptor = target: T9, M5 muscarinic receptor (Homo sapiens, UniProt P08912); assay: PDSP primary binding, M5; settings: n = 4, read-out: Inhibition (primary binding competition efficacy), M5
# T9 construct: purchased NIMH Psychoactive Drug Screening Program (PDSP)
# Protocol: as §1, §2
# σ 2 sigma receptor = assay: PDSP primary binding, σ 2; settings: 10 µM, n = 4
# Protocol: as §1, §2
# [3] = Metabolic stability, cryopreserved hepatocytes, mouse; format: in vitro ADME; settings: CD-1, 1.0E-06 M, 2 h
# [4] = Bacterial cytotoxicity, strain TA100; format: cell-based; settings: Salmonella typhimurium, bacterial tester strain TA100 without S9, read-out: Cytotoxicity (% of Control Values)
# Text: Supplement prp20002-e00026-sd1.doc, table 4: Table 4.
# strain TA100 = assay: Ames test, strain TA100; format: cell-based
# 5-HT2C = target: T10, 5-HT2C (Homo sapiens, UniProt P28335); assay: PDSP primary binding, 5-HT2C; settings: n = 4, read-out: Inhibition (primary binding competition efficacy), 5-HT2C
# T10 construct: purchased NIMH Psychoactive Drug Screening Program (PDSP)
# Protocol: as §1, §2
# M2 muscarinic receptor = target: T11, M2 muscarinic receptor (Homo sapiens, UniProt P08172); assay: PDSP primary binding, M2; settings: n = 4, read-out: Inhibition (primary binding competition efficacy), M2
# T11 construct: purchased NIMH Psychoactive Drug Screening Program (PDSP)
# Protocol: as §1, §2
# T3 sequence (P36544 23-502): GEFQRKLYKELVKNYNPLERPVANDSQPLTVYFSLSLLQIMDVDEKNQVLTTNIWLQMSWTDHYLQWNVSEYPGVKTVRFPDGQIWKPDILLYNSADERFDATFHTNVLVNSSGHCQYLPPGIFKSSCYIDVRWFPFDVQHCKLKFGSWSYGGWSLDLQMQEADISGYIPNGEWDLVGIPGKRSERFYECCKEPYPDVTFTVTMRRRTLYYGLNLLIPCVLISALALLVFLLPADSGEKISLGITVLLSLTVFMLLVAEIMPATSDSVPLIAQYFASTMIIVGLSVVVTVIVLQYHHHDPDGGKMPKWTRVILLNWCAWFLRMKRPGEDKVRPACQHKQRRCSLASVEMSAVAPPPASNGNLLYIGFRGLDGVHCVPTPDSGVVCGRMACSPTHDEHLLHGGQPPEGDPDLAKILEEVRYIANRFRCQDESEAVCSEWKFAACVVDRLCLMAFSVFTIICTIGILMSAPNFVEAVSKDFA
# T6 sequence (P08913 whole entry): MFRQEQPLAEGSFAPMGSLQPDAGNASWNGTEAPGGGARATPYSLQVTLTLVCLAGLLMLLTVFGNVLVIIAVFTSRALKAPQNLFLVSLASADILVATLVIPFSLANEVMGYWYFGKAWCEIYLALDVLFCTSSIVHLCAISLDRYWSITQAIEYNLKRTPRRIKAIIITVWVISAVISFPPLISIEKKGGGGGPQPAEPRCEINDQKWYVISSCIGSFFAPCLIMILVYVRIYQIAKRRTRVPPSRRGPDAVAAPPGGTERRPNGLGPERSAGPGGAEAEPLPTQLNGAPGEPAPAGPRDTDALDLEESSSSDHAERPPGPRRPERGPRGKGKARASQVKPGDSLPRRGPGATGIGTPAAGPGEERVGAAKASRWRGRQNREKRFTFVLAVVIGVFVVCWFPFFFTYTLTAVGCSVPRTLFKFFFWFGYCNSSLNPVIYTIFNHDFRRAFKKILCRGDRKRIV
# T4 sequence (P10635 whole entry): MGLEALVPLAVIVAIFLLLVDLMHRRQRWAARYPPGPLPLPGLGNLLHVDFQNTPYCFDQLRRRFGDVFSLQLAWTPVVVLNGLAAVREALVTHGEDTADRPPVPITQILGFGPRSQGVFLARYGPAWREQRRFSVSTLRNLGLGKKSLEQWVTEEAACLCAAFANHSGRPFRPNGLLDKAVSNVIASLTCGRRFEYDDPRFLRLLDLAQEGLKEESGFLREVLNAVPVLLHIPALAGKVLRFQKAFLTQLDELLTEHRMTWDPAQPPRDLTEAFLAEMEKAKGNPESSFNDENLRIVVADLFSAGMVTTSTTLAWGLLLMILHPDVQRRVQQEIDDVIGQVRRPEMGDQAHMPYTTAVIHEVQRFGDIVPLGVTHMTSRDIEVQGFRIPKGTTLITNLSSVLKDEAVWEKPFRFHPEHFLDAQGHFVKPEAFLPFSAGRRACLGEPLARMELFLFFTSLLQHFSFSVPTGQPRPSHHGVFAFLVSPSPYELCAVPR
# T7 sequence (P21917 whole entry): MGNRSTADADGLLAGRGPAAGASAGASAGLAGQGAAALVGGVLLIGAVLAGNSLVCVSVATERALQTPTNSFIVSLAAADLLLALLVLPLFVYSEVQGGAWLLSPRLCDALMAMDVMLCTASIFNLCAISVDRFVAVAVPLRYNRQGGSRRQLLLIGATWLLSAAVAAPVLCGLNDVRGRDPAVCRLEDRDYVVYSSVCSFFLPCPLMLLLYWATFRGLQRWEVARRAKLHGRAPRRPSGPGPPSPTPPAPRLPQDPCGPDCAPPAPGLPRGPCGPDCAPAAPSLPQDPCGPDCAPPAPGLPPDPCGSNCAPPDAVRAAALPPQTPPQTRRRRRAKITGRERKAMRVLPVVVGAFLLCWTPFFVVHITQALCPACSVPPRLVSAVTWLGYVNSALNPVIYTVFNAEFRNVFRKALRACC
# T8 sequence (P18825 whole entry): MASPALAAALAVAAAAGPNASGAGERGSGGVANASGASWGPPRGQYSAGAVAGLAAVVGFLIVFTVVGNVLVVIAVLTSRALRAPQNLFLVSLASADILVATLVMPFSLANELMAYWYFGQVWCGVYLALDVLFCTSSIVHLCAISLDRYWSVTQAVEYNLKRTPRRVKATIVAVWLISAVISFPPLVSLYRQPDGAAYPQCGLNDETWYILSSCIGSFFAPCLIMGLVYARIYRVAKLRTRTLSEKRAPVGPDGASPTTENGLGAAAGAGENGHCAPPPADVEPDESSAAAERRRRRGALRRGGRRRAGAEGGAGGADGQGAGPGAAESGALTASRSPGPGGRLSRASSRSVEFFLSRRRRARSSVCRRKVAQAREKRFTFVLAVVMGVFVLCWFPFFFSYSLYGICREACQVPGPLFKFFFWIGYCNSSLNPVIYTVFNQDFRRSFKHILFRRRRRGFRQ
# T11 sequence (P08172 whole entry): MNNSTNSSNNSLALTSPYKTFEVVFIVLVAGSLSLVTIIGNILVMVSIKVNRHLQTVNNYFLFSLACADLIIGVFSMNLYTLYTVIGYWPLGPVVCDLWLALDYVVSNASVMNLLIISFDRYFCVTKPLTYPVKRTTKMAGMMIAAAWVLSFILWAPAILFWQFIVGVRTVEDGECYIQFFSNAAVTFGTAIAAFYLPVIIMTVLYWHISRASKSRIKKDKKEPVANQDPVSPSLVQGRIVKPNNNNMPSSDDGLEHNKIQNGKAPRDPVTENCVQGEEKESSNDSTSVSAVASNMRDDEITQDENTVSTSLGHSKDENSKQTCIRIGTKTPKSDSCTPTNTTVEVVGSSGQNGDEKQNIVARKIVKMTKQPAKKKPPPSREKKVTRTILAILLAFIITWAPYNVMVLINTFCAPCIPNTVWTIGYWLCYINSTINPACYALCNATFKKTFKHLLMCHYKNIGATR
# T5 sequence (P11712 whole entry): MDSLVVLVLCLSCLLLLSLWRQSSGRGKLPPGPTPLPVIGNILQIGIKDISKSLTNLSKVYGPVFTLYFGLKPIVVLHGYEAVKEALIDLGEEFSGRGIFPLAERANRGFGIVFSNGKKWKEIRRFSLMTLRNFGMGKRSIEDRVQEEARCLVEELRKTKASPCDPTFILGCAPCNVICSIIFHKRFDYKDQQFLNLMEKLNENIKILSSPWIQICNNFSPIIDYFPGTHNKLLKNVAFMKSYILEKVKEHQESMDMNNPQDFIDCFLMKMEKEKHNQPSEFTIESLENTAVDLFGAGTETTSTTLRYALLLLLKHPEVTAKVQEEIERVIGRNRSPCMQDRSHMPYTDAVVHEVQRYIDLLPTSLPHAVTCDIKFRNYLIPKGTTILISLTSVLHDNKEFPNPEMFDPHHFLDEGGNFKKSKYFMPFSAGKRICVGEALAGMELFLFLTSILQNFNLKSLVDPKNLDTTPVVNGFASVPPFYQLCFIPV
# T9 sequence (P08912 whole entry): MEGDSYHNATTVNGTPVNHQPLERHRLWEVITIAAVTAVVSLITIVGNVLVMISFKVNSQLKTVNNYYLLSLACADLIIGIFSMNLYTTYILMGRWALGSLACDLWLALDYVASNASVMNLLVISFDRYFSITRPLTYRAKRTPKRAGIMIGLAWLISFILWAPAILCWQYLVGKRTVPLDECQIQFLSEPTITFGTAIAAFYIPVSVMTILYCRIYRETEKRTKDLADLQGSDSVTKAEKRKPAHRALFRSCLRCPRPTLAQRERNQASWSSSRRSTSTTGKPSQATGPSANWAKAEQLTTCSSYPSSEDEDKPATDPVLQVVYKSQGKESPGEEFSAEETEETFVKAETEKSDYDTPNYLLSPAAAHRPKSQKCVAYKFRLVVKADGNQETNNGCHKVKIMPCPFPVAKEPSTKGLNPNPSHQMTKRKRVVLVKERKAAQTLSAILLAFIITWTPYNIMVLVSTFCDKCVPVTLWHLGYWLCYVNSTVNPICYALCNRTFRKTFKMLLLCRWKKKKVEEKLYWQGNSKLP
# T10 sequence (P28335 33-458): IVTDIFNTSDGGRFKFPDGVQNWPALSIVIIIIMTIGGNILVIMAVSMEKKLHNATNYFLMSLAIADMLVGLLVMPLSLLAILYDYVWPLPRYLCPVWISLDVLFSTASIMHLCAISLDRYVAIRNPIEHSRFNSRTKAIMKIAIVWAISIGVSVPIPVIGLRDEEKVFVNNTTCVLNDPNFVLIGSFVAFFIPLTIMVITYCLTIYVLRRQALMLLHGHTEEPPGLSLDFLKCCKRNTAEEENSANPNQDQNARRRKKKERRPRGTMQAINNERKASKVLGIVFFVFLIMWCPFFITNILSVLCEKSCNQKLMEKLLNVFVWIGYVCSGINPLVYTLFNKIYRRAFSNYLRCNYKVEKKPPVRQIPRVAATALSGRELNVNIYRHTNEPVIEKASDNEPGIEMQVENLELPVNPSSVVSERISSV
# T1 sequence (P11229 whole entry): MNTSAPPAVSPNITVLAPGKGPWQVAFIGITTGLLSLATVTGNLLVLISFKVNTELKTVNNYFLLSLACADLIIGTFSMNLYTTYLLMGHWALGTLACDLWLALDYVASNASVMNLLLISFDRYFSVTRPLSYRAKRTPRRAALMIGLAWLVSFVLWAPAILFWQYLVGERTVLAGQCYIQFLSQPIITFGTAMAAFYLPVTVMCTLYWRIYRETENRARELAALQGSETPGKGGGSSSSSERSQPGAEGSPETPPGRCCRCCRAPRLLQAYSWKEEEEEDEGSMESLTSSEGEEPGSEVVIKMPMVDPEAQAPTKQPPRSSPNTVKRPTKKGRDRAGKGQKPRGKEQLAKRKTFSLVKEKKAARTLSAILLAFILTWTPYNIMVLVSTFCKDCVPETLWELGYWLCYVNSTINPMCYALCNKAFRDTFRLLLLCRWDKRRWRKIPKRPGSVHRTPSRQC
smiles,measurement,setting,value
"OCCc1cc(-c2cncc(OC[C@@H]3CCN3)c2)on1 [LF-3-88, 2-[5-[5-(2(S)-azetidinylmethoxyl)-3-pyridyl]-3-isoxazolyl]ethanol]",mortality,Balb/CJ mice,no mortality
same,inhibition toward five CYP450 enzymes,[1],No significant inhibition
same,inhibition across 51 other CNS neurotransmitter receptors and transporters,[2],≤ 50%
same,inhibition at 10 µM,M1 muscarinic receptor,8.8%
same,inhibition at 10 µM,5-HT1B,-7.9%
same,agonist activity at α7-nAChRs in oocytes,human α7-nAChR; 20 μmol/L,lack of agonist activity
same,effect at α7-nAChRs in oocytes,human α7-nAChR; concentrations as high as 20 μmol/L,No effect
same,antagonist activity at α7-nAChR in oocytes,human α7-nAChR; responses to 100 μmol/L ACh,weak if any antagonist activity
same,"Inhibition (primary binding competition efficacy), GABAB",GABAB,1.1%
same,CYP2D6 Inhibition,CYP2D6,-0.4%
same,CYP2C9 Inhibition,CYP2C9,4%
same,inhibition at 10 µM,α2A adrenergic receptor,23.1%
same,"Inhibition (primary binding competition efficacy), mGluR5",mGluR5,6.6%
same,inhibition at 10 µM,D4 dopamine receptor,-2.5%
same,inhibition at 10 µM,α2C adrenergic receptor,17.2%
same,inhibition at 10 µM,M5 muscarinic receptor,-9.4%
same,"Inhibition (primary binding competition efficacy), σ 2",σ 2 sigma receptor,11.5%
same,Remaining (metabolic stability),[3],91%
same,viability at 0.0001 M,"[4]; strain TA100 – S9, 1.0E-04 M",139%
same,viability at 10 µM,"[4]; strain TA100 – S9, 1.0E-05 M",103%
same,viability at 1.25 µM,"[4]; strain TA100 – S9, 1.25E-06 M",102%
same,viability at 25 µM,"[4]; strain TA100 – S9, 2.5E-05 M",115%
same,viability at 2.5 µM,"[4]; strain TA100 – S9, 2.5E-06 M",99%
same,viability at 50 µM,"[4]; strain TA100 – S9, 5.0E-05 M",125%
same,viability at 5 µM,"[4]; strain TA100 – S9, 5.0E-06 M",103%
same,viability at 625 nM,"[4]; strain TA100 – S9, 6.25E-07 M",101%
same,Ames test Result,"strain TA100; strain TA100 + S9, 1.0E-04 M",Negative
same,Ames test Result,"strain TA100; strain TA100 + S9, 1.0E-05 M",Negative
same,Ames test Result,"strain TA100; strain TA100 + S9, 5.0E-05 M",Negative
same,Ames test Result,"strain TA100; strain TA100 + S9, 5.0E-06 M",Negative
same,Ames test Result,"strain TA100; strain TA100 – S9, 1.0E-04 M",Negative
same,Ames test Result,"strain TA100; strain TA100 – S9, 1.0E-05 M",Negative
same,Ames test Result,"strain TA100; strain TA100 – S9, 5.0E-05 M",Negative
same,Ames test Result,"strain TA100; strain TA100 – S9, 5.0E-06 M",Negative
same,"mutagenic potential (Ames), TA100","strain TA100; with or without S9, 5, 10, 50, or 100 μmol/L",negative
same,inhibition at 10 µM,5-HT2C,22.7%
same,inhibition at 10 µM,M2 muscarinic receptor,6.8%
